Tested on: KRAS-mutant PDC tumor spheroid with HUVEC/MSC, viability
Experiment: Anticancer human tumor 327498-153-R-J2-PDC patient-derived uterine carcinosarcoma cell line growth inhibition [KRAS2]
Details: for IC50: curve of first compound; for viability, T/C: stronger effect = lower value
Excerpt: Multicellular complex tumor spheroid response to RAS pathway inhibitors in combination with a targeted agents in patient-derived cell lines with oncogenic KRAS variants from multiple cancer types
A high-throughput screen of multi-cell type tumor spheroids was designed to identify active combinations of targeted small molecules and KRAS pathway inhibitors. Complex spheroids include a stromal component modeled by human endothelial cells (HUVEC) and fibroblasts modeled by human mesenchymal stem cells (MSCs). The concentration ranges selected for each drug and investigational agent were based upon clinically achievable concentrations if the clinical Cmax of the agent was known.
Compounds. The drugs and investigational agents: BI-3406 (NSC825286), BAY-293 (NSC824723), batoprotafib (TNO155; NSC825523), sotorasib (AMG 510; NSC818433), MRTX1257 (NSC819558), elimusertib (BAY 1895344; NSC800525), molibresib (GSK525762; NSC774829), temuterkib (LY3214996; NSC803410), venetoclax (NSC766270), alisertib (NSC759677), olaparib (NSC753686), talazoparib (NSC767125), erdafitinib (NSC781556), ipatasertib (NSC767898), cabozantinib (NSC761068), nintedanib (NSC756659), abemaciclib (NSC768073), docetaxel (NSC628503), trametinib (NSC758246), and sapanisertib (NSC764658) were obtained from the National Cancer Institute (NCI) Developmental Therapeutics Program Chemical Repository. The FDA-approved anticancer drug set is available from the Developmental Therapeutics Program. […] The stock solutions were prepared in dimethyl sulfoxide (DMSO, Sigma-Aldrich, St. Louis, MO, cat. D2650) at 800-fold the tested concentration and stored at -70 degrees C prior to their use. All drugs and investigational agents were tested over a range starting from a high concentration at or near the clinical Cmax and decreasing in half-log increments. If the clinical Cmax for an agent had not been determined, the highest concentration tested was 10 microM.
Cell Culture. All cells were maintained in an incubator at 37 degrees C and 5% CO2 with 95% humidity. The PDC lines were cultured according to standard operating procedures established by the NCI PDMR (https://pdmr.cancer.gov/sops/default.htm). Briefly, all PDCs were thawed and cultured in Matrigel-coated flasks prepared with a working solution of 1X Ham's F-12 nutrient mix, without supplementation (Invitrogen, Waltham, MA, cat. 11765054), 100 U/mL penicillin-streptomycin (Invitrogen, cat. 15140122), and 2.5% Matrigel (Corning Inc., Corning, NY, cat. 354248) for the first three passages. All PDCs were cultured in complete DMEM/F-12 media containing advanced DMEM/F-12 (Invitrogen, cat. 12634028), 4.9% defined fetal bovine serum, heat inactivated (HyClone Laboratories Inc., Logan, UT, cat. SH30070.03HI), 389 ng/mL hydrocortisone (Sigma-Aldrich, cat. H4001), 9.7 ng/mL human EGF recombinant protein (Invitrogen, cat. PHG0313), 23.4 microg/mL adenine (Sigma-Aldrich, cat. A2786), 97.3 U/mL penicillin-streptomycin (Invitrogen, cat. 15140122), 1.9 mM L-glutamine (Invitrogen, cat. 25030081), and 9.7 microM Y-27632 dihydrochloride (Tocris Bioscience, Bristol, United Kingdom, cat. 1254). The PDCs were cultured in complete DMEM/F12 media without 9.7 microM Y-27632 dihydrochloride for at least two passages prior to the screen. The established cell line HOP-62 was cultured in RPMI 1640 medium, HEPES (Invitrogen, cat. 22400105) with 10% defined fetal bovine serum (HyClone Laboratories Inc., cat. SH30070.03) and 2 mM L-glutamine (Invitrogen, cat. 25030081). The pooled donor HUVEC were cultured in endothelial cell growth medium 2 (PromoCell, Heidelberg, Germany, cat. C-22011) and the hMSC were cultured in mesenchymal stem cell growth medium 2 (PromoCell, cat. C-28009). For all experiments, HUVEC and hMSC were used at passages </=5, while the malignant cell lines were used at passages </=15. […]

[1] = second compound 0.1 µM, first compound 0.0316 µM
[2] = second compound 0.1 µM, first compound 0.1 µM
[3] = second compound 0.1 µM, first compound 0.316 µM
[4] = second compound 0.1 µM, first compound 1 µM
[5] = second compound 0.1 µM, first compound 3.16 µM
[6] = second compound 0.316 µM, first compound 0.0316 µM
[7] = second compound 0.316 µM, first compound 0.1 µM
[8] = second compound 0.316 µM, first compound 0.316 µM
[9] = second compound 0.316 µM, first compound 1 µM
[10] = second compound 0.316 µM, first compound 3.16 µM
[11] = second compound 1 µM, first compound 0.0316 µM
[12] = second compound 1 µM, first compound 0.1 µM
[13] = second compound 1 µM, first compound 0.316 µM
[14] = second compound 1 µM, first compound 1 µM
[15] = second compound 1 µM, first compound 3.16 µM
[16] = second compound 3.16 µM, first compound 0.0316 µM
[17] = second compound 3.16 µM, first compound 0.1 µM
[18] = second compound 3.16 µM, first compound 0.316 µM
[19] = second compound 3.16 µM, first compound 1 µM
[20] = second compound 3.16 µM, first compound 3.16 µM
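Note: spheroids exposed to agents for seven days before reading.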
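Throughout, for viability, T/C: 100% = DMSO vehicle wells so lower means fewer viable cells.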

| SMILES | IC50 (second compound 0.1 µM) [nM] | IC50 (second compound 0.316 µM) [nM] | IC50 (second compound 1 µM) [nM] | IC50 (second compound 3.16 µM) [nM] | viability, T/C [1] [%] | viability, T/C [2] [%] | viability, T/C [3] [%] | viability, T/C [4] [%] | viability, T/C [5] [%] | viability, T/C [6] [%] | viability, T/C [7] [%] | viability, T/C [8] [%] | viability, T/C [9] [%] | viability, T/C [10] [%] | viability, T/C [11] [%] | viability, T/C [12] [%] | viability, T/C [13] [%] | viability, T/C [14] [%] | viability, T/C [15] [%] | viability, T/C [16] [%] | other results |
| --- | --- | --- | --- | --- | --- | --- | --- | --- | --- | --- | --- | --- | --- | --- | --- | --- | --- | --- | --- | --- | --- |
| COc1cc(Nc2ncc3c(n2)-c2ccc(Cl)cc2C(c2c(F)cccc2OC)=NC3)ccc1C(=O)O + C=CC(=O)N1CCN(c2nc(OCC3CCCN3C)nc3c2CCN(c2cccc4cccc(C)c24)C3)CC1CC#N | < 31.6 | < 31.6 | < 31.6 | < 31.6 | 12.7 | 11.3 | 10.2 | 9.02 | 12.1 | 10.2 | 8.78 | 8.53 | 8.2 | 9.27 | 10.3 | 8.65 | 7.42 | 6.83 | 7.63 | 2.49 | IC50 (second compound 0.0316 µM): < 31.6 nM; viability, T/C (second compound 0.0316 µM, first compound 0.0316 µM): 13.7%; viability, T/C (second compound 0.0316 µM, first compound 0.1 µM): 11.9%; viability, T/C (second compound 0.0316 µM, first compound 0.316 µM): 11.5%; viability, T/C (second compound 0.0316 µM, first compound 1 µM): 9.41%; viability, T/C (second compound 0.0316 µM, first compound 3.16 µM): 11.3%; viability, T/C (second compound 0.0316 µM, first compound 10 µM): 10.4%; viability, T/C (second compound 0.1 µM, first compound 10 µM): 10.4%; viability, T/C (second compound 0.316 µM, first compound 10 µM): 9.77%; viability, T/C (second compound 1 µM, first compound 10 µM): 6.7%; viability, T/C [17]: 2.27%; viability, T/C [18]: 1.67%; viability, T/C [19]: 0.13%; viability, T/C [20]: 0.95%; viability, T/C (second compound 3.16 µM, first compound 10 µM): 0.23% |
| CC(=O)OC12COC1CC(O)C1(C)C(=O)C(O)C3=C(C)C(OC(=O)C(O)C(NC(=O)OC(C)(C)C)c4ccccc4)CC(O)(C(OC(=O)c4ccccc4)C21)C3(C)C (stereo not given) + CNCc1ccccc1-c1csc(C(C)Nc2nc(C)nc3cc(OC)c(OC)cc23)c1 | < 10 | < 10 | < 10 | < 10 | 5.57 | 5.61 | 7.57 | 8.63 | 13.1 | 5.76 | 8.79 | 6.37 | 9.11 | 10.8 | 6.01 | 6.6 | 7.2 | 11 | 10.6 | 0.04 | IC50 (second compound 10 µM): < 10 nM; viability, T/C (second compound 0.1 µM, first compound 0.01 µM): 7.46%; viability, T/C (second compound 0.316 µM, first compound 0.01 µM): 7.41%; viability, T/C (second compound 1 µM, first compound 0.01 µM): 9.89%; viability, T/C (second compound 3.16 µM, first compound 0.01 µM): 8.09%; viability, T/C [17]: 0.03%; viability, T/C [18]: 0.04%; viability, T/C [19]: 0.48%; viability, T/C [20]: 10.4%; viability, T/C (second compound 10 µM, first compound 0.01 µM): 0.78%; viability, T/C (second compound 10 µM, first compound 0.0316 µM): 0.42%; viability, T/C (second compound 10 µM, first compound 0.1 µM): 2.08%; viability, T/C (second compound 10 µM, first compound 0.316 µM): 0.12%; viability, T/C (second compound 10 µM, first compound 1 µM): 10.2%; viability, T/C (second compound 10 µM, first compound 3.16 µM): 0.25% |
